# Laboratory results taken from US6737383B1, “Herbicidal oxadiazolidines” (priority 1999, dated 2004).
# What was measured:
# crabgrass = assay: Test B pre/postemergence crabgrass; type: in vivo, Digitaria sanguinalis
# Method in brief: (§1)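 Response is a visual 0-to-10 score relative to untreated plants, where 0 means no effect and 10 means complete control, taken twelve to sixteen days after application. Treatments went onto soil at planting and onto foliage of 1- to 4-leaf plants, using a surfactant-containing non-phytotoxic solvent.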
# surinam grass = assay: Test B pre/postemergence surinam grass; type: in vivo, Brachiaria decumbens
# Method in brief: as §1
# wild oat = assay: Test B pre/postemergence wild oat; type: in vivo, Avena fatua
# Method in brief: as §1
# purple nutsedge = assay: Test B pre/postemergence purple nutsedge; type: in vivo, Cyperus rotundus
# Method in brief: as §1
# soybean = assay: Test B pre/postemergence soybean; type: in vivo, Glycine max
# Method in brief: as §1
# bedstraw = assay: Test B pre/postemergence bedstraw; type: in vivo, Galium aparine; conditions: Postemergence
# Method in brief: as §1
# velvetleaf = assay: Test B pre/postemergence velvetleaf; type: in vivo, Abutilon theophrasti
# Method in brief: as §1
# rice = assay: Test B flood test rice; type: in vivo, Oryza sativa
# Method in brief: (§2)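 Each value is a visual injury score relative to controls, with 10 meaning complete control and 0 no effect. Evaluation took place twelve to sixteen days after the 2-leaf-stage plants were treated and kept in the greenhouse.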
# smallflower flatsedge = assay: Test B flood test smallflower flatsedge; type: in vivo, Cyperus difformis
# Method in brief: as §2
# sugar beet = assay: Test B pre/postemergence sugar beet; type: in vivo, Beta vulgaris
# Method in brief: as §1
# pigweed = assay: Test B pre/postemergence pigweed; type: in vivo, Amaranthus retroflexus
# Method in brief: as §1
# duck salad = assay: Test B flood test duck salad; type: in vivo, Heteranthera limosa
# Method in brief: as §2
# corn = assay: Test B pre/postemergence corn; type: in vivo, Zea mays
# Method in brief: as §1
# blackgrass = assay: Test B pre/postemergence blackgrass; type: in vivo, Alopecurus myosuroides
# Method in brief: as §1
# rape = assay: Test B pre/postemergence rape; type: in vivo, Brassica napus
# Method in brief: as §1
# wheat = assay: Test B pre/postemergence wheat; type: in vivo, Triticum aestivum
# Method in brief: as §1
# [1] = Postemergence, Rate 62 g/ha, scale 0 to 10, 0 is no effect, 10 is complete control
# [2] = Postemergence, Rate 125 g/ha, scale of 0 to 10 where 0 is no effect and 10 is complete control
# [3] = Postemergence, Rate 250 g/ha, scale of 0 to 10, 0 is no effect, 10 is complete control
# [4] = Preemergence, Rate 62 g/ha, scale 0 to 10 (0 no effect, 10 complete control)
# [5] = Preemergence, Rate 125 g/ha, scale of 0 to 10 where 0 is no effect and 10 is complete control
# [6] = Preemergence, Rate 250 g/ha, scale 0 to 10 (0 no effect, 10 complete control)
# [7] = Preemergence, Rate 500 g/ha, scale of 0 to 10 where 0 is no effect and 10 is complete control
# [8] = Postemergence, Rate 500 g/ha, scale of 0 to 10 where 0 is no effect and 10 is complete control
# [9] = Rate 62 g/ha, flood test species, Pre-emergence, visual evaluation after twelve to sixteen days
# [10] = Rate 125 g/ha, under heading Pre-emergence, flood test species, visual evaluation after twelve to sixteen days
# [11] = Rate 250 g/ha, Pre-emergence (flood test species), scale 0 to 10, 0 is no effect, 10 is complete control
# [12] = Rate 500 g/ha, Pre-emergence section of Table B, 0 to 10 scale (0 no effect, 10 complete control)
compound,measurement,setting,value
CCOC(Cn1c(=O)on(C(=O)N(c2ccccc2)C(C)C)c1=O)OCC [Compound 632],"Plant response rating, Crabgrass",crabgrass; [1],0
same,"Plant response rating, Crabgrass",crabgrass; [2],6
same,Crabgrass plant response rating,crabgrass; [3],8
same,Crabgrass plant response rating,crabgrass; [4],2
same,Crabgrass plant response rating,crabgrass; [5],7
same,"Plant response rating, Crabgrass",crabgrass; [6],8
same,"Plant response rating, Crabgrass",crabgrass; [7],9
same,"Plant response rating, B. signalgrass",surinam grass; [1],0
same,"Plant response rating, B. signalgrass",surinam grass; [2],0
same,B. signalgrass plant response rating,surinam grass; [3],2
same,"Plant response rating, B. signalgrass",surinam grass; [8],6
same,B. signalgrass plant response rating,surinam grass; [4],0
same,B. signalgrass plant response rating,surinam grass; [5],3
same,"Plant response rating, B. signalgrass",surinam grass; [6],6
same,"Plant response rating, B. signalgrass",surinam grass; [7],10
same,"Plant response rating, Wild oats",wild oat; [1],0
same,"Plant response rating, Wild oats",wild oat; [2],0
same,Wild oats plant response rating,wild oat; [3],0
same,Wild oats plant response rating,wild oat; [4],0
same,Wild oats plant response rating,wild oat; [5],2
same,"Plant response rating, Wild oats",wild oat; [6],3
same,"Plant response rating, Wild oats",wild oat; [7],3
same,"Plant response rating, Nutsedge",purple nutsedge; [1],0
same,"Plant response rating, Nutsedge",purple nutsedge; [2],0
same,Nutsedge plant response rating,purple nutsedge; [3],0
same,Nutsedge plant response rating,purple nutsedge; [4],0
same,Nutsedge plant response rating,purple nutsedge; [5],0
same,"Plant response rating, Nutsedge",purple nutsedge; [6],0
same,"Plant response rating, Nutsedge",purple nutsedge; [7],0
same,"Plant response rating, Soybean",soybean; [1],1
same,"Plant response rating, Soybean",soybean; [2],2
same,Soybean plant response rating,soybean; [3],4
same,Soybean plant response rating,soybean; [4],0
same,Soybean plant response rating,soybean; [5],0
same,"Plant response rating, Soybean",soybean; [6],0
same,"Plant response rating, Soybean",soybean; [7],0
same,"Plant response rating, Bedstraw","bedstraw; Rate 62 g/ha, scale 0 to 10, 0 is no effect, 10 is complete control",0
same,"Plant response rating, Bedstraw","bedstraw; Rate 125 g/ha, scale of 0 to 10 where 0 is no effect and 10 is complete control",0
same,Bedstraw plant response rating,"bedstraw; Rate 250 g/ha, scale of 0 to 10, 0 is no effect, 10 is complete control",0
same,"Plant response rating, Velvetleaf",velvetleaf; [1],0
same,"Plant response rating, Velvetleaf",velvetleaf; [2],0
same,Velvetleaf plant response rating,velvetleaf; [3],0
same,Velvetleaf plant response rating,velvetleaf; [4],0
same,Velvetleaf plant response rating,velvetleaf; [5],1
same,"Plant response rating, Velvetleaf",velvetleaf; [6],6
same,"Plant response rating, Velvetleaf",velvetleaf; [7],7
same,"Plant response rating, Rice (0 to 10 scale, 0 is no effect, 10 is complete control)",rice; [9],0
same,"Rice plant response rating (0 to 10 scale, 0 is no effect, 10 is complete control)",rice; [10],0
same,Rice plant response rating,rice; [11],0
same,Rice plant response rating,rice; [12],0
same,"Plant response rating, S. Flatsedge (0 to 10 scale, 0 is no effect, 10 is complete control)",smallflower flatsedge; [9],0
same,"S. Flatsedge plant response rating (0 to 10 scale, 0 is no effect, 10 is complete control)",smallflower flatsedge; [10],0
same,S. Flatsedge plant response rating,smallflower flatsedge; [11],0
same,S. Flatsedge plant response rating,smallflower flatsedge; [12],0
same,"Plant response rating, Sugarbeets",sugar beet; [1],0
same,"Plant response rating, Sugarbeets",sugar beet; [2],0
same,Sugarbeets plant response rating,sugar beet; [3],0
same,Sugarbeets plant response rating,sugar beet; [4],0
same,Sugarbeets plant response rating,sugar beet; [5],0
same,"Plant response rating, Sugarbeets",sugar beet; [6],0
same,"Plant response rating, Sugarbeets",sugar beet; [7],0
same,"Plant response rating, Redroot pigweed",pigweed; [1],0
same,"Plant response rating, Redroot pigweed",pigweed; [2],0
same,Redroot pigweed plant response rating,pigweed; [3],0
same,Redroot pigweed plant response rating,pigweed; [4],0
same,Redroot pigweed plant response rating,pigweed; [5],0
same,"Plant response rating, Redroot pigweed",pigweed; [6],6
same,"Plant response rating, Redroot pigweed",pigweed; [7],10
same,"Plant response rating, Ducksalad (0 to 10 scale, 0 is no effect, 10 is complete control)",duck salad; [9],0
same,"Ducksalad plant response rating (0 to 10 scale, 0 is no effect, 10 is complete control)",duck salad; [10],0
same,Ducksalad plant response rating,duck salad; [11],0
same,Ducksalad plant response rating,duck salad; [12],0
same,"Plant response rating, Corn",corn; [1],0
same,"Plant response rating, Corn",corn; [2],3
same,Corn plant response rating,corn; [3],3
same,"Plant response rating, Corn",corn; [8],5
same,Corn plant response rating,corn; [4],0
same,Corn plant response rating,corn; [5],4
same,"Plant response rating, Corn",corn; [6],4
same,"Plant response rating, Corn",corn; [7],5
same,"Plant response rating, Blackgrass",blackgrass; [1],0
same,"Plant response rating, Blackgrass",blackgrass; [2],4
same,Blackgrass plant response rating,blackgrass; [3],6
same,"Plant response rating, Blackgrass",blackgrass; [8],8
same,Blackgrass plant response rating,blackgrass; [4],2
same,Blackgrass plant response rating,blackgrass; [5],4
same,"Plant response rating, Blackgrass",blackgrass; [6],7
same,"Plant response rating, Blackgrass",blackgrass; [7],10
same,"Plant response rating, Rape",rape; [1],0
same,"Plant response rating, Rape",rape; [2],0
same,Rape plant response rating,rape; [3],0
same,"Plant response rating, Rape",rape; [8],0
same,Rape plant response rating,rape; [4],0
same,Rape plant response rating,rape; [5],0
same,"Plant response rating, Rape",rape; [6],0
same,"Plant response rating, Rape",rape; [7],4
same,"Plant response rating, Wheat",wheat; [1],0
same,"Plant response rating, Wheat",wheat; [2],0
same,Wheat plant response rating,wheat; [3],0
same,Wheat plant response rating,wheat; [4],0
same,Wheat plant response rating,wheat; [5],0
same,"Plant response rating, Wheat",wheat; [6],0
same,"Plant response rating, Wheat",wheat; [7],0
